Data on 24 molecules can be found in ChEMBL document CHEMBL1697731, “Cheminformatics analysis of assertions mined from literature that describe drug-induced liver injury in different species” (Chem Res Toxicol, 2010).

In series [1] the test system is Hepatotoxicity. In words: Literature-mined compound from Fourches et al multi-species drug-induced liver injury (DILI) dataset, effect in humans. The conditions noted are these: human.
Series [2] relates to Hepatotoxicity. Description: Literature-mined compound from Fourches et al multi-species drug-induced liver injury (DILI) dataset, effect in rodents. The conditions noted are these: rodentia.
Series [3] has as its system Hepatotoxicity. Description: Literature-mined compound from Fourches et al multi-species drug-induced liver injury (DILI) dataset, effect in non-rodents.

In the case of `O=C(O)c1ccccc1Nc1cccc(C(F)(F)F)c1` [FLUFENAMIC ACID], the Hepatotoxicity entry in the series with Hepatotoxicity [1] is reported as “drug-induced liver injury reported”; with Hepatotoxicity [2], “drug-induced liver injury reported”; with Hepatotoxicity [3], “no drug-induced liver injury reported”.
Regarding `CCOC(=O)c1ncn2c1CN(C)C(=O)c1cc(F)ccc1-2` [FLUMAZENIL], the Hepatotoxicity entry is given as “drug-induced liver injury reported” with Hepatotoxicity [1], “no drug-induced liver injury reported” in the series on Hepatotoxicity [2] and “no drug-induced liver injury reported” in the series on Hepatotoxicity [3].
On to `CN1C(=O)CN=C(c2ccccc2F)c2cc([N+](=O)[O-])ccc21` [FLUNITRAZEPAM], for which the Hepatotoxicity entry in the series on Hepatotoxicity [1] was “no drug-induced liver injury reported”; in the series on Hepatotoxicity [2] it was “no drug-induced liver injury reported”; in the series with Hepatotoxicity [3], “drug-induced liver injury reported”.
Regarding `O=c1[nH]cc(F)c(=O)[nH]1` [FLUOROURACIL], the Hepatotoxicity entry in the series with Hepatotoxicity [1], in the series with Hepatotoxicity [2] and in the series on Hepatotoxicity [3] was “drug-induced liver injury reported” throughout.
As to `CC(C(=O)O)c1ccc(-c2ccccc2)c(F)c1` (configuration not stated) [FLURBIPROFEN], the Hepatotoxicity result in the series on Hepatotoxicity [1] is on record as “no drug-induced liver injury reported”; with Hepatotoxicity [2] it was “drug-induced liver injury reported”; in the series on Hepatotoxicity [3] it was “drug-induced liver injury reported”.
Take `CC(C)C(=O)Nc1ccc([N+](=O)[O-])c(C(F)(F)F)c1` [FLUTAMIDE]: the Hepatotoxicity result was “drug-induced liver injury reported” in the series with Hepatotoxicity [1], “drug-induced liver injury reported” with Hepatotoxicity [2] and “no drug-induced liver injury reported” in the series with Hepatotoxicity [3].
In the case of `CC(C)n1c(/C=C/C(O)CC(O)CC(=O)O)c(-c2ccc(F)cc2)c2ccccc21` (configuration not stated) [FLUVASTATIN], the Hepatotoxicity result was “drug-induced liver injury reported” with Hepatotoxicity [1] (Liver), “drug-induced liver injury reported” in the series with Hepatotoxicity [2] (Liver) and “no drug-induced liver injury reported” with Hepatotoxicity [3] (Liver).
As to `COCCCC/C(=N\OCCN)c1ccc(C(F)(F)F)cc1` [FLUVOXAMINE], the Hepatotoxicity result is “drug-induced liver injury reported” in the series on Hepatotoxicity [1], “drug-induced liver injury reported” with Hepatotoxicity [2] and “no drug-induced liver injury reported” in the series with Hepatotoxicity [3].
As for `Nc1nc2ncc(CNc3ccc(C(=O)N[C@@H](CCC(=O)O)C(=O)O)cc3)nc2c(=O)[nH]1` [FOLIC ACID], the Hepatotoxicity result in the series on Hepatotoxicity [1] is “drug-induced liver injury reported”; in the series on Hepatotoxicity [2], “drug-induced liver injury reported”; with Hepatotoxicity [3], “no drug-induced liver injury reported”.
In the case of `Cc1cn[nH]c1` [FOMEPIZOLE], the figures for the Hepatotoxicity result in the series with Hepatotoxicity [1], with Hepatotoxicity [2] and in the series with Hepatotoxicity [3] were “drug-induced liver injury reported”, “drug-induced liver injury reported” and “no drug-induced liver injury reported”, respectively.
For the molecule `C=O` [FORMALDEHYDE], the Hepatotoxicity result in the series with Hepatotoxicity [1] (Liver) was “drug-induced liver injury reported”; in the series on Hepatotoxicity [2] (Liver) it was “drug-induced liver injury reported”; in the series on Hepatotoxicity [3] (Liver), “no drug-induced liver injury reported”.
Regarding `O=C([O-])P(=O)([O-])[O-].[Na+].[Na+].[Na+]` [FOSCARNET SODIUM], the figures for the Hepatotoxicity entry in the series on Hepatotoxicity [1], with Hepatotoxicity [2] and with Hepatotoxicity [3] were “no drug-induced liver injury reported”, “drug-induced liver injury reported” and “no drug-induced liver injury reported”, respectively.
As to `C[C@@H]1O[C@@H]1P(=O)(O)O` [FOSFOMYCIN], the Hepatotoxicity entry was “drug-induced liver injury reported” in the series with Hepatotoxicity [1], “no drug-induced liver injury reported” in the series with Hepatotoxicity [2] and “no drug-induced liver injury reported” with Hepatotoxicity [3].
For `CCC(=O)O[C@@H](O[P@](=O)(CCCCc1ccccc1)CC(=O)N1C[C@H](C2CCCCC2)C[C@H]1C(=O)O)C(C)C` [FOSINOPRIL], the Hepatotoxicity entry in the series on Hepatotoxicity [1] is on record as “drug-induced liver injury reported”; with Hepatotoxicity [2], “no drug-induced liver injury reported”; in the series on Hepatotoxicity [3], “no drug-induced liver injury reported”.
Turning to `NC[C@@H]1O[C@H](O[C@H]2[C@@H](O)[C@H](O[C@@H]3[C@@H](O)[C@H](N)C[C@H](N)[C@H]3O[C@H]3O[C@H](CN)[C@@H](O)[C@H](O)[C@H]3N)O[C@@H]2CO)[C@H](N)[C@@H](O)[C@@H]1O` [FRAMYCETIN], the Hepatotoxicity result in the series on Hepatotoxicity [1] (Liver) is listed as “no drug-induced liver injury reported”; in the series with Hepatotoxicity [2] (Liver), “drug-induced liver injury reported”; with Hepatotoxicity [3] (Liver) it was “no drug-induced liver injury reported”.
For the molecule `O=P(O)(O)OC[C@H]1O[C@@](O)(COP(=O)(O)O)[C@@H](O)[C@@H]1O` [FRUCTOSE 1,6-DIPHOSPHATE], the results for the Hepatotoxicity result in the series on Hepatotoxicity [1], in the series with Hepatotoxicity [2] and in the series on Hepatotoxicity [3] were “drug-induced liver injury reported”, “drug-induced liver injury reported” and “no drug-induced liver injury reported”, respectively.
As for `O=C(CO)[C@@H](O)[C@H](O)[C@H](O)CO` [FRUCTOSE], the Hepatotoxicity result in the series with Hepatotoxicity [1], in the series with Hepatotoxicity [2] and with Hepatotoxicity [3] was “drug-induced liver injury reported” in each case.
`c1ccoc1` [FURAN]: the results for the Hepatotoxicity result in the series with Hepatotoxicity [1], in the series on Hepatotoxicity [2] and in the series on Hepatotoxicity [3] were “no drug-induced liver injury reported”, “drug-induced liver injury reported” and “no drug-induced liver injury reported”, respectively.
For the molecule `O=C1OCCN1/N=C/c1ccc([N+](=O)[O-])o1` [FURAZOLIDONE], the Hepatotoxicity entry in the series with Hepatotoxicity [1] is “no drug-induced liver injury reported”; in the series on Hepatotoxicity [2], “drug-induced liver injury reported”; in the series with Hepatotoxicity [3], “no drug-induced liver injury reported”.
On to `CC(=O)O[C@H]1C[C@@]2(C)[C@@H](C[C@@H](O)[C@H]3[C@@]4(C)CC[C@@H](O)[C@@H](C)[C@@H]4CC[C@@]32C)/C1=C(\CCC=C(C)C)C(=O)O` [FUSIDIC ACID], for which the Hepatotoxicity result in the series with Hepatotoxicity [1] is “drug-induced liver injury reported”; in the series with Hepatotoxicity [2], “no drug-induced liver injury reported”; with Hepatotoxicity [3], “no drug-induced liver injury reported”.
As to `Nc1nc(O)c2ncn(COC(CO)CO)c2n1` [GANCICLOVIR], the figures for the Hepatotoxicity entry in the series on Hepatotoxicity [1], in the series on Hepatotoxicity [2] and in the series on Hepatotoxicity [3] were “drug-induced liver injury reported”, “no drug-induced liver injury reported” and “no drug-induced liver injury reported”, respectively.
Regarding `COc1c(N2CCNC(C)C2)c(F)cc2c(=O)c(C(=O)O)cn(C3CC3)c12` (configuration not stated) [GATIFLOXACIN], the results for the Hepatotoxicity entry with Hepatotoxicity [1], with Hepatotoxicity [2] and in the series on Hepatotoxicity [3] were “drug-induced liver injury reported”, “no drug-induced liver injury reported” and “no drug-induced liver injury reported”, respectively.
For the molecule `COc1cc2ncnc(Nc3ccc(F)c(Cl)c3)c2cc1OCCCN1CCOCC1` [GEFITINIB], the Hepatotoxicity result is listed as “drug-induced liver injury reported” in the series with Hepatotoxicity [1], “drug-induced liver injury reported” with Hepatotoxicity [2] and “no drug-induced liver injury reported” with Hepatotoxicity [3].
For the molecule `COC1=C2C[C@@H](C)C[C@H](OC)[C@H](O)[C@@H](C)/C=C(\C)[C@H](OC(N)=O)[C@@H](OC)/C=C\C=C(/C)C(=O)NC(=CC1=O)C2=O` [GELDANAMYCIN], the Hepatotoxicity entry in the series with Hepatotoxicity [1] is on record as “drug-induced liver injury reported”; with Hepatotoxicity [2], “no drug-induced liver injury reported”; with Hepatotoxicity [3] it was “no drug-induced liver injury reported”.
